Data from US20140228427A1, “PHARMACEUTICAL COMPOSITION CONTAINING WOGONIN AS AN ACTIVE INGREDIENT FOR PREVENTING OR TREATING ASTHMA” (KOREA RESEARCH INSTITUTE OF BIOSCIENCE AND BIOTECHNOLOGY, priority 2011, published 2014).

Columns and labels:
[1] = tested on: airway hypersensitivity in ovalbumin-sensitized Balb/c mice; test: Measurement of airway hypersensitivity (Penh, methacholine inhalation, one chamber plethysmography); type: in vivo; settings: for Penh value: mean±S.E.
Protocol: (§1) To investigate the effect of the Wogonin of the present invention on asthma, 6-week old female Balb/c mice in the weight of about 20 g were used as test animals. After spending one week for adaptation, basic physical examination was performed to select normal ones.
(§2) The test animal was sensitized with 200 μl of phosphate buffer (pH 7.4) containing 2 mg of aluminum hydroxide (A8222, Sigma, St. Louis, Mo.) and 20 μg of ovalbumin (A5503, Sigma, St. Louis, Mo.) by intraperitoneal injection at 2 weeks interval. 1% ovalbumin was inhaled in the mouse for 30 minutes by using an ultrasonic nebulizer from the 28th day to the 30th day after the first intraperitoneal injection of ovalbumin (OVA).
(§3) 24 hours after the final antigen treatment, airway hypersensitivity was measured. 48 hours later, a lethal dose of pentobarbital (Entobar, Hanlim Pharm. Co. Ltd., Seoul, Korea) was administered to the mouse. Body weight was measured and tracheostomy was performed. Bronchoalveolar lavage was performed with 1.2 ml of saline, followed by sampling. The normal control group (NC) was administered with ovalbumin but not inhaled, the asthma induced group (OVA) was administered with ovalbumin and inhaled to induce bronchial asthma, the comparative group 1 (DEXA) was orally administered with dexamethasone (3 mg/kg, PO: D4902, Sigma, St. Louis, Mo.) one hour before inhaling ovalbumin, the comparative group 2 (Monte) was orally administered with montelukast (30 mg/kg, PO) one hour before inhaling ovalbumin, and the experimental group (Wogonin) was orally administered with the Wogonin of Example 1 (30 mg/kg, PO) one hour before inhaling ovalbumin. Each group was composed of 5 white mice.
The effect of the Wogonin of the present invention on asthma related airway hypersensitivity was evaluated by measuring enhanced pause (Penh) which presents the grade of airway obstruction calculated by measuring airway resistance using one chamber plethysmorgraphy (All Medicus, Seoul). For the measurement of Penh, base value was measured under normal breathing condition and then PBS was inhaled by using an ultrasonic nebulizer for 3 minutes, followed by measuring for 3 minutes. Then, methacholine (A2251, Sigma, St. Louis, Mo.), the […], which is generally used to diagnose bronchial asthma, was inhaled to the animal with raising the concentration gradually (12, 25, and 50 mg/ml), followed by measuring Penh. The ratio of Penh increased over the concentrations of methacholine inhaled was presented as % and baseline Penh (saline challenge) was presented as 100%.

reactive oxygen species = test: Measurement of reactive oxygen species generation (DCFH-DA fluorescence) in bronchoalveolar lavage fluid; type: in vivo, Balb/c mice; settings: for Reactive oxygen species generation, DCF fluorescence: NC = 100%, OVA group 192.89 ± 27.36; for reduction of reactive oxygen species generation compared with the asthma induced group: vs asthma induced group
Protocol: as §1, §2, §3
The increase of oxidative stress results in the decrease of reaction to steroids. To investigate the effect of the Wogonin of the present invention on asthma, the present inventors measured the generation of reactive oxygen species which is apparent in asthma like in other inflammatory diseases.
A portion of bronchoalveolar lavage fluid of each group was washed with PBS, to which 10 μM of 2,7-Dichlorofluorescein diacetate (DCFH-DA, 35845, Sigma, St. Louis, Mo.), one of the fluorescent reagents, was added. The mixture stood at room temperature for 10 minutes in the darkness, and then measured fluorescence with a spectrofluorometer (Ex=480 nm Em=522 nm).

IL-4 = test: Analysis of cytokine mRNA (RT-PCR), IL-4; type: in vivo, Balb/c mice; settings: for Relative Densitometric Value, RDV, IL-4: NC = 100%, OVA group 159.91 ± 14.87
Protocol: as §1, §2, §3
(§4) To investigate the effect of the Wogonin of the present invention on asthma, asthma related cytokine mRNA was measured.
(§5) RNA was isolated from the lung by using trizol (Invitrogen) in order to measure the expressions of Th2 cytokines such as IL-4, IL-6, and IL-13 in the supernatant of bronchoalveolar lavage fluid taken from each group, followed by reverse transcriptase polymerase chain reaction (quantitative RT-PCR, Promega, Wis.). When the lowest expression was indicated as 1, relative densitometric value (RDV) was produced by that to evaluate the expression inhibition effect.

[2] = Body weight of ovalbumin-induced asthma mice; type: in vivo, Balb/c mice; settings: OVA asthma induced mice; Wogonin 30 mg/kg PO, dexamethasone 3 mg/kg PO, montelukast 30 mg/kg PO; asthma induced group 19.72±0.53, normal control 21.60±0.25
Protocol: as §1, §2, §3

[3] = tested on: airway hypersensitivity in ovalbumin-sensitized Balb/c mice; test: Measurement of airway hypersensitivity (Penh, methacholine inhalation, one chamber plethysmography); type: in vivo; settings: methacholine 12.5 mg/ml; OVA group 2.2917 ± 0.3070; mean±S.E.
IL-6 = test: Analysis of cytokine mRNA (RT-PCR), IL-6; type: in vivo, Balb/c mice; settings: for Relative Densitometric Value, RDV, IL-6: NC = 100%, OVA group 128.20 ± 6.51
Protocol: as §1, §2, §3, §4, §5

IL-13 = test: Analysis of cytokine mRNA (RT-PCR), IL-13; type: in vivo, Balb/c mice; settings: for Relative Densitometric Value, RDV, IL-13: NC = 100%, OVA group 187.35 ± 7.49
Protocol: as §1, §2, §3, §4, §5

IgE = test: Measurement of IgE in serum and bronchoalveolar lavage fluid by enzyme immunoassay; type: in vivo, Balb/c mice; settings: mean±S.E.; for Total IgE Conc. in bronchoalveolar lavage fluid: OVA group 19.02 ± 2.43; for Total IgE Conc. in Serum: OVA group 23139.51 ± 484.45
Protocol: as §1, §2, §3
To investigate the effect of the Wogonin of the present invention on asthma, the inventors measured IgE concentration in serum and bronchoalveolar lavage fluid which is related to the severity of asthma by enzyme immunoassay.
Serum and bronchoalveolar lavage fluid taken from each group were loaded in […] plate on which 0.1M NaHCO3 buffer (pH 8.3) containing 20 μg/ml of ovalbumin (OVA) was coated at 4° C. for overnight. Non-specific reaction was blocked by PBS containing 1% bovine serum albumin. Serum sample was diluted at the ratio of 1:400, followed by reaction at room temperature for 2 hours.
After washing the plate well, the sample was reacted with anti-mouse IgE monoclonal antibody diluted at the ratio of 1:300 for 2 hours. HRP-conjugated goat anti-rat IgG polyclonal A was diluted at the ratio of 1:4000, which was added thereto for further reaction at room temperature for 1 hour, followed by washing.
For color development, 3.3′5.5′-tetramethylbenzidine substrate was added, followed by measuring OD650.

[4] = tested on: inflammatory cells (eosinophils and other inflammatory cells) in bronchoalveolar lavage fluid; test: Analysis of inflammatory cells in bronchoalveolar lavage fluid; type: in vivo, Balb/c mice; settings: for Cell Number, other cells: OVA group 452.55 ± 93.48
Protocol: as §1, §2, §3
To investigate the effect of the Wogonin of the present invention on asthma, the present inventors measured the increase or decrease of inflammatory cell number which is believed to be involved in asthma.
As soon as bronchoalveolar lavage fluid was recovered from each group, it was stained with Trypan blue. Then, the number of cells, except dead cells, was counted by hemocytometer. The sample was smeared with Cytospin II, followed by Diff-Quick staining (Sysmex, Switzerland) to calculate the numbers of eosinophils and other inflammatory cells.

[5] = tested on: infiltration of inflammatory cells around bronchiolus and blood vessels; test: Histopathological test of the lung (H&E, inflammatory index); type: in vivo, Balb/c mice; settings: index scale 0-4; for Inflammatory Index around bronchiolus: OVA group 3.60 ± 0.22; for Inflammatory Index around blood vessels: OVA group 3.80 ± 0.18
Protocol: as §1, §2, §3
The infiltration of inflammatory cells including eosinophils, neutrophils, and macrophages is observed in the bronchus sensitized with an antigen. To investigate the effect of the Wogonin of the present invention on asthma, the inventors performed histopathological test with the lung without bronchoalveolar lavage.
The lung extracted without bronchoalveolar lavage from each group was fixed with formalin and embedded in paraffin. Then, 4 μm thick permanent tissue sections were prepared, followed by H&E staining. Upon completion of H&E staining, inflammatory index was measured from 5 random regions of each section, and then mean value was calculated.

[6] = methacholine 0 mg/ml, OVA group 0.6299 ± 0.0617
[7] = methacholine 25 mg/ml, OVA group 6.8642 ± 0.8313
[8] = methacholine 50 mg/ml, OVA group 9.1854 ± 1.6230

SMILES	Penh value [1, 6]	Penh value [1, 7]	Penh value [1, 8]	Reactive oxygen species generation, DCF fluorescence (reactive oxygen species) [%]	reduction of reactive oxygen species generation compared with the asthma induced group (reactive oxygen species) [%]	Relative Densitometric Value, RDV, IL-4 (IL-4) [%]	average body weight [2] [g]	Penh value [3]	Relative Densitometric Value, RDV, IL-6 (IL-6) [%]	Relative Densitometric Value, RDV, IL-13 (IL-13) [%]	Total IgE Conc. in bronchoalveolar lavage fluid (IgE) [ng/mL]	Total IgE Conc. in Serum (IgE) [ng/mL]	Cell Number, eosinophils ([4]; OVA group 71.75 ± 4.63)	Cell Number, other cells [4]	Cell Number, total cells ([4]; OVA group 524.30 ± 43.22)	Inflammatory Index around bronchiolus [5]	Inflammatory Index around blood vessels [5]	further results
C[C@@H]1C[C@H]2[C@@H]3CCC4=CC(=O)C=C[C@]4(C)[C@@]3(F)[C@@H](O)C[C@]2(C)[C@@]1(O)C(=O)CO [DEXA, dexamethasone]	0.6486 ± 0.1526	1.9963 ± 0.1577	2.7864 ± 0.4293	116.55 ± 9.28	39.58	139.60 ± 13.34	21.04 ± 0.35	1.6750 ± 0.0820	121.37 ± 6.78	176.55 ± 16.13	10.15 ± 1.38	15991.36 ± 1194.92	8.24 ± 1.31 ×10^3 cell/mouse	81.00 ± 10.40 ×10^3 cell/mouse	89.24 ± 6.98 ×10^3 cell/mouse	1.75±0.19	1.50 ± 0.22	Cell Number, eosinophils ([4]; OVA group 71.75 ± 4.63, listed as dexamethasone): 8.24±1.31 ×10^3 cell/mouse; Cell Number, total cells ([4]; OVA group 524.30 ± 43.22, listed as dexamethasone): 89.24±6.98 ×10^3 cell/mouse; Inflammatory Index around blood vessels ([5]; listed as comparative control group 1): 1.50±0.22
CC(C)(O)c1ccccc1CC[C@@H](SCC1(CC(=O)O)CC1)c1cccc(/C=C/c2ccc3ccc(Cl)cc3n2)c1 [Monte, montelukast]	0.4525 ± 0.0313	2.1006 ± 0.4758	2.3576 ± 0.1741	104.48 ± 9.80	45.84	138.86 ± 19.52	21.08 ± 0.36	1.5249 ± 0.2432	112.39 ± 7.16	157.67 ± 16.60	10.15 ± 1.58	17176.54 ± 2542.98	27.88 ± 2.80 ×10^3 cell/mouse	130.12 ± 9.22 ×10^3 cell/mouse	167.68 ± 8.80 ×10^3 cell/mouse	2.25±0.22	2.50 ± 0.25	Cell Number, eosinophils ([4]; OVA group 71.75 ± 4.63, listed as montelukast): 27.88±2.80 ×10^3 cell/mouse; Cell Number, total cells ([4]; OVA group 524.30 ± 43.22, listed as montelukast): 167.68±8.80 ×10^3 cell/mouse; Inflammatory Index around blood vessels ([5]; listed as comparative control group 2): 0.50±0.25
COc1c(O)cc(O)c2c(=O)cc(-c3ccccc3)oc12 [Wogonin]	0.4261 ± 0.0069	2.0166 ± 0.2248	2.6055 ± 0.2280	60.91 ± 4.14	68.42	118.11 ± 29.80	21.92 ± 0.43	1.7059 ± 0.3028	106.87 ± 10.47	143.68 ± 14.08	12.10 ± 1.87	19418.52 ± 1332.101	32.24±8.84 ×10^3 cell/mouse	140.28 ± 26.24 ×10^3 cell/mouse	172.52±29.29 ×10^3 cell/mouse	1.00±0.28	1.40±0.22	Penh value over the increase of methacholine concentration ([1]; range over methacholine concentrations): 1.7059-2.6055; suppression of IL-4 expression compared with the asthma induced group (IL-4; lung, vs asthma induced group): 26.14%; suppression of IL-6 expression compared with the asthma induced group (IL-6; lung, vs asthma induced group): 16.64%; suppression of IL-13 expression compared with the asthma induced group (IL-13; lung, vs asthma induced group): 23.30%
